Where two headings read alike, the source gives them in different places. Bridge positions count the residues as written; N and C are the ends. Ends that are not written are not given here. Peptide text beside a SMILES is read from it.
Assays:
[1] = target: T1, IR485 pre-complexed with a 10-fold molar ratio of IR classical αCT peptide (Homo sapiens, UniProt P06213, I448T/Q492K/Y171H); assay: ITC titration against IR485 pre-complexed with a 10-fold molar ratio of IR αCT peptide; type: binding; settings: 25° C., IR485 + 10 × IR-αCT, mean of three ± SEM
T1 construct: host or cells: Lec8 mutant CHO cells (IR485)
Procedure: (§1) The IR485 construct of human IR was expressed in Lec8 mutant CHO cells and purified by gel filtration chromatography as described previously (Lou et al., 2006). IR485 consists of the first 485 residues of the mature human insulin receptor followed by the 16-residue sequence […] (SEQ ID NO: 10), which comprises a serine residue followed by an enterokinase cleavage site and a c-myc epitope tag. The c-myc tag was not removed for the ITC studies described here. IR485 was concentrated to 30 mg/ml in Tris-buffered saline (TBSA; 24.8 mM Tris-HCl (pH 8.0), 137 mM NaCl, 2.7 mM KCl and 0.02% sodium azide) using an Ultrafree centrifugal concentrator (Millipore, USA). Porcine insulin (Sigma-Aldrich, USA) was prepared in a zinc-free-form (termed ZFP-insulin) by extensive dialysis against 0.1% (v/v) acetic acid followed by lyophilization.
Peptides were prepared by dissolving in 10 mM HCl at ˜4 mg/ml concentration and then diluting with TBSA. Oxidation of peptides S519N20 and S519 (which contain two cysteine residues) was carried out by incubating the respective peptide (prepared at 1 mg/ml in 50 mM ammonium bicarbonate adjusted to pH 8.5 with ammonia solution) in the dark at room temperature for 2 days and then lyophilizing before use. […] All protein concentrations were determined by absorbance measurement at 280 nm using a NanoDrop 1000 spectrophotometer (Thermo Scientific, USA).
ITC experiments were performed using a VP-ITC isothermal titration calorimeter (MicroCal Inc., USA) with the calorimeter cell held at 25° C. All samples were degassed prior to injection or placement into the cell, and the instrument was temperature equilibrated prior to the start of the injections. In all experiments the volume of sample placed in the cell was 1.4 ml and the titrant was injected in 7 μl volumes over 14 s at 3 min intervals, with the total number of injections being 40. […] Data were analyzed using the instrument's software incorporated within the Origin 7 software (OriginLab, USA) and in all cases fitted as a single-site interaction using the methodologies outlined in the instrument's manual.

[2] = target: T2, IR485 (first three N-terminal domains of the human insulin receptor) (Homo sapiens, UniProt P06213, I448T/Q492K/Y171H); assay: ITC titration of hormones, αCT peptides and insulin mimetic peptides against IR485; type: binding; settings: for ΔH^0 / −TΔS^0: sample IR485 alone, mean of three ± SEM
T2 construct: made in house; host or cells: Lec8 mutant CHO cells
Excerpt: In order to study ligand binding to the first three domains of IR ectodomain, isothermal titration calorimetry (ITC) was used. ITC allowed a direct assay of the interactions between the IR ectodomain classical αCT peptide (residues 704-719; SEQ ID NO: 11) and IR485 (a construct consisting of the first three N-terminal domains of the IR; SEQ ID NO: 10), as well as the interaction between the analogous peptide of human IGF-1R and IR485. At the same time the thermodynamics of binding of the N- and C-terminal segments of the insulin mimetic peptide S519 (Schäffer et al., 2003) to IR485, as well as the binding of S519 itself to IR485 were examined. S519 ([…]; SEQ ID NO: 16) is a 36-residue peptide resulting from the affinity-optimization of two covalently-linked peptides, S371, a so-called “Site 1” peptide, and S446, a so-called “Site 2” peptide (Pillutla et al., 2002). […] Finally, the binding to IR485 of the IR αCT peptide carrying a F714A mutation (residues 704-719, […]; SEQ ID NO: 12) was examined.
The IR485 construct of human IR was expressed in Lec8 mutant CHO cells and purified by gel filtration chromatography as described previously (Lou et al., 2006). IR485 consists of the first 485 residues of the mature human insulin receptor followed by the 16-residue sequence […] (SEQ ID NO: 10), which comprises a serine residue followed by an enterokinase cleavage site and a c-myc epitope tag. The c-myc tag was not removed for the ITC studies described here. IR485 was concentrated to 30 mg/ml in Tris-buffered saline (TBSA; 24.8 mM Tris-HCl (pH 8.0), 137 mM NaCl, 2.7 mM KCl and 0.02% sodium azide) using an Ultrafree centrifugal concentrator (Millipore, USA). Porcine insulin (Sigma-Aldrich, USA) was prepared in a zinc-free-form (termed ZFP-insulin) by extensive dialysis against 0.1% (v/v) acetic acid followed by lyophilization. Human IGF-I was obtained from Novozymes GroPep (Australia) as “receptor grade” material.
The IR classical αCT peptide (residues 704-719, […]; SEQ ID NO: 11), the IGF-1R classical αCT peptide (residues 691-706, […]; SEQ ID NO: 14) as well as the F714A mutant of IR αCT (denoted IR αCT.714A; SEQ ID NO: 12) were obtained from Genscript Corporation (USA) at the >98% level of purity. The S519N20 peptide ([…]; SEQ ID NO: 17) and the S519C16 peptide ([…]; SEQ ID NO: 18) were obtained from AusPep (Australia) at the >90% level of purity. The S519 peptide ([…]; SEQ ID NO: 16) was obtained from Activotec (UK) at the >85% purity. Peptides were prepared by dissolving in 10 mM HCl at ˜4 mg/ml concentration and then diluting with TBSA. Oxidation of peptides S519N20 and S519 (which contain two cysteine residues) was carried out by incubating the respective peptide (prepared at 1 mg/ml in 50 mM ammonium bicarbonate adjusted to pH 8.5 with ammonia solution) in the dark at room temperature for 2 days and then lyophilizing before use. Oxidation was complete as determined by analysis with Ellman's reagent (5,5′-dithiobis-2-nitrobenzoate). All protein concentrations were determined by absorbance measurement at 280 nm using a NanoDrop 1000 spectrophotometer (Thermo Scientific, USA).
ITC experiments were performed using a VP-ITC isothermal titration calorimeter (MicroCal Inc., USA) with the calorimeter cell held at 25° C. All samples were degassed prior to injection or placement into the cell, and the instrument was temperature equilibrated prior to the start of the injections. In all experiments the volume of sample placed in the cell was 1.4 ml and the titrant was injected in 7 μl volumes over 14 s at 3 min intervals, with the total number of injections being 40. The sample contents were stirred at a speed of 310 rpm over the duration of the titration. All titrants (i.e. ZFP-insulin, IGF-I, IR αCT peptide, IGF-1R αCT peptide, IR αCT.714A peptide, S519, S519N20, and […]) were first injected into a solution of TBSA alone in order ascertain the heat of dilution, which was then subtracted from the data of interest as appropriate. […]

human IR = human IR (Homo sapiens, UniProt P06213); settings: Schäffer et al., 2003; cited from earlier work
ZFP-insulin = target: T3, ZFP-insulin (Sus scrofa, UniProt P01315); assay: ITC titration of IR αCT peptide against ZFP-insulin; type: binding, Porcine; settings: 25° C.
T3 construct: purchased Sigma-Aldrich
Procedure: as §1, with “Porcine insulin (Sigma-Aldrich, USA) was prepared in a zinc-free-form (termed ZFP-insulin) by extensive dialysis against 0.1% (v/v) acetic acid followed by lyophilization.” left out
(§2) Peptides were prepared by dissolving in 10 mM HCl at ˜4 mg/ml concentration and then diluting with TBSA. […] All protein concentrations were determined by absorbance measurement at 280 nm using a NanoDrop 1000 spectrophotometer (Thermo Scientific, USA).
(§3) ITC experiments were performed using a VP-ITC isothermal titration calorimeter (MicroCal Inc., USA) with the calorimeter cell held at 25° C. […] Data were analyzed using the instrument's software incorporated within the Origin 7 software (OriginLab, USA) and in all cases fitted as a single-site interaction using the methodologies outlined in the instrument's manual.

IGF-I = target: T4, IGF-I (Homo sapiens, UniProt P05019); assay: ITC titration of IGF-1R αCT peptide against IGF-I; type: binding; settings: 25° C.
T4 construct: purchased Novozymes GroPep (Australia)
Procedure: as §1, with “Porcine insulin (Sigma-Aldrich, USA) was prepared in a zinc-free-form (termed ZFP-insulin) by extensive dialysis against 0.1% (v/v) acetic acid followed by lyophilization.” left out
as §2, §3

[3] = target: T5, IR485 pre-complexed with a 10-fold molar ratio of IGF-1R classical αCT peptide (Homo sapiens, UniProt P06213+P08069, I448T/Q492K/Y171H); assay: ITC titration against IR485 pre-complexed with a 10-fold molar ratio of IGF-1R αCT peptide; type: binding; settings: 25° C., IR485 + 10 × IGF1R-αCT, mean of three ± SEM
T5 construct: host or cells: Lec8 mutant CHO cells (IR485)
Procedure: as §1, with “Porcine insulin (Sigma-Aldrich, USA) was prepared in a zinc-free-form (termed ZFP-insulin) by extensive dialysis against 0.1% (v/v) acetic acid followed by lyophilization.” left out
as §2, §3

T2 sequence (P06213 with tags, fused parts or gaps Y171H/I448T/Q492K): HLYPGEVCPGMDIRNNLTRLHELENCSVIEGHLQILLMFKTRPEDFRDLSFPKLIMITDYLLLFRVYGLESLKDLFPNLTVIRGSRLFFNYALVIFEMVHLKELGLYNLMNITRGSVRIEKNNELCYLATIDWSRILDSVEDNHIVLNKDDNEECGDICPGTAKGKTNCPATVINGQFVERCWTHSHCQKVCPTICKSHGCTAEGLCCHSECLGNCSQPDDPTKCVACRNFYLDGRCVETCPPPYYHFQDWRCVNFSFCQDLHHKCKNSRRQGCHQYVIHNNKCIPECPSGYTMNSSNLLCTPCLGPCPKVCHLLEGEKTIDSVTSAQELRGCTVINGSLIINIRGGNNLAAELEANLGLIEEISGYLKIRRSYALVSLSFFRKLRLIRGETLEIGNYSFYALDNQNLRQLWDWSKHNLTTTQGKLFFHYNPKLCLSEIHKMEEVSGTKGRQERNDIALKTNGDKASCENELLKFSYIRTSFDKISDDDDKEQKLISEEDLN
T1 sequence (P06213 with tags, fused parts or gaps Y171H/I448T/Q492K limits assumed, other chains not shown): as the sequence (P06213 with tags, fused parts or gaps Y171H/I448T/Q492K) above
T4 sequence (P05019 49-118 limits assumed): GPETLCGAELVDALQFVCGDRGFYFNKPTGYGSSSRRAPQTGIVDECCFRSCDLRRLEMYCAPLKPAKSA
T3 sequence (P01315 25-54 limits assumed): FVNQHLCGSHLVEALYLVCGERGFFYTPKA
T3 sequence (P01315 88-108 limits assumed): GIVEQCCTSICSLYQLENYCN
T5 sequence (P06213 with tags, fused parts or gaps Y171H/I448T/Q492K limits assumed, other chains not shown): as the sequence (P06213 with tags, fused parts or gaps Y171H/I448T/Q492K) above
Sequence of human IR (P06213 28-758 limits assumed): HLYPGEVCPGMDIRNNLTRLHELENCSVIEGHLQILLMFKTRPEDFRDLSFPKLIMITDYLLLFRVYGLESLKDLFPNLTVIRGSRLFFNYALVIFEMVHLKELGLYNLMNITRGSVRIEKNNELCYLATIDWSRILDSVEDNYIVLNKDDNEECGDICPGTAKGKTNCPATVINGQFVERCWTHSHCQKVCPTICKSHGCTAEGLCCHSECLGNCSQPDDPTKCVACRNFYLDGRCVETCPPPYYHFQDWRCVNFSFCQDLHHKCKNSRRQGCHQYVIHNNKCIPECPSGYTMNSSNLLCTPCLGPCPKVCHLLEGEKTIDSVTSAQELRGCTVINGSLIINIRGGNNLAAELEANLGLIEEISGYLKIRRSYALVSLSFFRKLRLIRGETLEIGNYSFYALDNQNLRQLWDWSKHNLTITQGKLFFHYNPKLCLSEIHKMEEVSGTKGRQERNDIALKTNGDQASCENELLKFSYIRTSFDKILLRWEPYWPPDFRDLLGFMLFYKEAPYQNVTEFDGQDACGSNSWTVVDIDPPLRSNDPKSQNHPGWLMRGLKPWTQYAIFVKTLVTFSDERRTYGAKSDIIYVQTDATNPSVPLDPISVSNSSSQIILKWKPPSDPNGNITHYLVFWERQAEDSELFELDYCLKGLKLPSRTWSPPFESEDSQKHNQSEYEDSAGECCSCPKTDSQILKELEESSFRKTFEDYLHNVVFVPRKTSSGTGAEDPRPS
Sequence of human IR (P06213 763-1382 partner limits assumed): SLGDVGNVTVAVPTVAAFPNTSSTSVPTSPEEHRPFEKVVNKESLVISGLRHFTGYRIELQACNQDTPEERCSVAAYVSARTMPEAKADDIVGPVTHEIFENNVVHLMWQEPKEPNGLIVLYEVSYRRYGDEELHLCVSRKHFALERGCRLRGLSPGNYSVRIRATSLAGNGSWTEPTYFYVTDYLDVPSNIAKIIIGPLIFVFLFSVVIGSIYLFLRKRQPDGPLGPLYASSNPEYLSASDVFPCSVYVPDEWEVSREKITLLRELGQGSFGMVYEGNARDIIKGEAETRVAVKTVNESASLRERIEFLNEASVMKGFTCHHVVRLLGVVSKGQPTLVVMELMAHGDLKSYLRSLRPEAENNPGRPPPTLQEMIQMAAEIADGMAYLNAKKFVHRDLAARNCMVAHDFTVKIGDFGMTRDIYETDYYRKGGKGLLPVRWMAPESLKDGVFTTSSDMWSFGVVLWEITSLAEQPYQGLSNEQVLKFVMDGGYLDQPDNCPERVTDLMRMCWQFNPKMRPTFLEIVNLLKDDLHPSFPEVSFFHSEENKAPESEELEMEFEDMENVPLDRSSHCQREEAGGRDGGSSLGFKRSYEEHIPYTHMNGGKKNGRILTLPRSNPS

CC(C)C[C@H](NC(=O)[C@H](CCC(N)=O)NC(=O)[C@H](CCCNC(=N)N)NC(=O)[C@H](CCC(=O)O)NC(=O)[C@H](Cc1ccccc1)NC(=O)[C@H](Cc1c[nH]c2ccccc12)NC(=O)[C@H](CC(=O)O)NC(=O)[C@H](Cc1ccc(O)cc1)NC(=O)[C@H](Cc1ccccc1)NC(=O)[C@H](CO)NC(=O)[C@H](CCC(=O)O)NC(=O)[C@H](CC(=O)O)NC(=O)[C@H](CC(C)C)NC(=O)[C@H](CO)NC(=O)CN)C(=O)NCC(=O)O [S519C16]
ΔH^0 [1]: -7.89 ± 0.48 kcal/mol
−TΔS^0 [1]: -2.63 ± 0.72 kcal/mol
Kd [2]: 0.0026 ± 0.0007 µM
ΔH^0 ([2]; ITC, 25° C.): -14.6 ± 0.96 kcal/mol
−TΔS^0 ([2]; ITC, 25° C.): 2.87 ± 0.96 kcal/mol

CC(C)C[C@H](NC(=O)[C@@H](N)CO)C(=O)N[C@@H](CCC(=O)O)C(=O)N[C@@H](CCC(=O)O)C(=O)N[C@@H](CCC(=O)O)C(=O)N[C@@H](Cc1c[nH]c2ccccc12)C(=O)N[C@@H](C)C(=O)N[C@@H](CCC(N)=O)C(=O)N[C@H](C(=O)N[C@@H](CCC(=O)O)C(=O)N[C@H]1CSSC[C@@H](C(=O)N2CCC[C@H]2C(=O)N[C@@H](CO)C(=O)O)NC(=O)CNC(=O)[C@H](CCCNC(=N)N)NC(=O)CNC(=O)[C@H](Cc2ccc(O)cc2)NC(=O)[C@H](C(C)C)NC(=O)[C@H](CCC(=O)O)NC1=O)C(C)C [S519N20] (H-SLEEEWAQVECEVYGRGCPS-OH; disulfide 11-18)
Kd [2]: > 1000 µM

CC(C)C[C@H](NC(=O)[C@H](CCC(N)=O)NC(=O)[C@H](CCCNC(=N)N)NC(=O)[C@H](CCC(=O)O)NC(=O)[C@H](Cc1ccccc1)NC(=O)[C@H](Cc1c[nH]c2ccccc12)NC(=O)[C@H](CC(=O)O)NC(=O)[C@H](Cc1ccc(O)cc1)NC(=O)[C@H](Cc1ccccc1)NC(=O)[C@H](CO)NC(=O)[C@H](CCC(=O)O)NC(=O)[C@H](CC(=O)O)NC(=O)[C@H](CC(C)C)NC(=O)[C@H](CO)NC(=O)CNC(=O)[C@H](CO)NC(=O)[C@@H]1CCCN1C(=O)[C@@H]1CSSC[C@H](NC(=O)[C@H](CCC(=O)O)NC(=O)[C@@H](NC(=O)[C@H](CCC(N)=O)NC(=O)[C@H](C)NC(=O)[C@H](Cc2c[nH]c3ccccc23)NC(=O)[C@H](CCC(=O)O)NC(=O)[C@H](CCC(=O)O)NC(=O)[C@H](CCC(=O)O)NC(=O)[C@H](CC(C)C)NC(=O)[C@@H](N)CO)C(C)C)C(=O)N[C@@H](CCC(=O)O)C(=O)N[C@@H](C(C)C)C(=O)N[C@@H](Cc2ccc(O)cc2)C(=O)NCC(=O)N[C@@H](CCCNC(=N)N)C(=O)NCC(=O)N1)C(=O)NCC(=O)O [S519] (H-SLEEEWAQVECEVYGRGCPSGSLDESFYDWFERQLG-OH; disulfide 11-18; N-terminus and C-terminus assumed)
Kd [2]: 0.011 ± 0.003 µM
ΔH^0 ([2]; ITC, 25° C.): -16.5 ± 1.4 kcal/mol
−TΔS^0 ([2]; ITC, 25° C.): 5.74 ± 1.4 kcal/mol
Kd (human IR): 20 pM

TFEDYLHNVVAVPRPS [IR-αCT.714A]
Kd [2]: 6.5 ± 1.7 µM

TFEDYLHNVVFVPRPS [IR-αCT]
Kd (ZFP-insulin; interaction with ZFP-insulin, read-out: Kd (estimated, weaker than)): > 1000 µM
Kd (ZFP-insulin; sample ZFP-insulin 20 μM, titrant 200 μM, read-out: Kd): > 1000 µM
Kd [2]: 3.9 ± 1.1 µM

VFENFLHNSIFVPRPE [IGF1R-αCT]
Kd [2]: 17.6 ± 2.1 µM
Kd (IGF-I; interaction with IGF-I, read-out: Kd (estimated, weaker than)): > 1000 µM
Kd (IGF-I; sample IGF-I (printed IGF-IR) 20 μM, titrant 200 μM, read-out: Kd): > 1000 µM

ZFP-insulin: Porcine insulin (Sigma-Aldrich) prepared in a zinc-free form by dialysis against acetic acid and lyophilization
Kd [1]: 0.017 ± 0.004 µM
Kd [3]: 0.0057 ± 0.0011 µM
Kd ([2]; ITC, 25° C., TBSA, sample IR485, mean of three experiments ± SEM, single-site model, read-out: Kd): > 1000 µM
